Laboratory results as given in patent US6399632B1, “Method of providing an antihistaminic effect in a hepatically impaired patient” (Merrell Pharmaceuticals Inc., priority 1992, dated 2002).
One block for each molecule: values may come before it.

Key:
[1] = plasma concentrations of unchanged terfenadine and acid metabolite formation in subjects; format: in vivo
[2] = to two primary metabolites; cited from earlier work
histamine H1-receptor = histamine H1-receptor (Homo sapiens, UniProt P35367); details: primary metabolites of terfenadine; cited from earlier work
[3] = system: patients with impaired hepatic function; details: recommended dose of terfenadine, or antihistaminic amount of acid metabolite
[4] = cases of hepatic impairment, preliminary information

Sequence of histamine H1-receptor (P35367 whole entry, species assumed): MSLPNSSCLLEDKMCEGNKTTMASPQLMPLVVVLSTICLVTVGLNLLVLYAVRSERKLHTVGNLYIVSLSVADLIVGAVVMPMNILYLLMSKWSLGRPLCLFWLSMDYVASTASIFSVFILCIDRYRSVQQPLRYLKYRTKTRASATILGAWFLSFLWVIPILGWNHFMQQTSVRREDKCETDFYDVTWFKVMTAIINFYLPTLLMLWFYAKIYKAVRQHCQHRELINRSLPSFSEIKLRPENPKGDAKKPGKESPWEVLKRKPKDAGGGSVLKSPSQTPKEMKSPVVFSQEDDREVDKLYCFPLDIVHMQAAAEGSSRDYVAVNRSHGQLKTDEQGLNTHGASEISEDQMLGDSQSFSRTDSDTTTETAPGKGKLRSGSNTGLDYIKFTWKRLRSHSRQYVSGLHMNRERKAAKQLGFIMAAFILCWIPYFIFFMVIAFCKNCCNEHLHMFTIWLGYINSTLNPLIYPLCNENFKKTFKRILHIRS

rate of acid metabolite formation [1, 4]: decreased
unchanged terfenadine plasma concentrations ([1]; subjects with normal hepatic function): have not been detected
Compound: CC(C)(C)c1ccc(C(O)CCCN2CCC(C(O)(c3ccccc3)c3ccccc3)CC2)cc1 (stereo not drawn) [Terfenadine, α-[4-(1,1-dimethylethyl)phenyl]-4-(hydroxydiphenylmethyl)-1-piperidinebutanol]
unchanged terfenadine plasma concentrations [1, 4]: significant concentrations of unchanged terfenadine can be detected
first pass metabolism [2]: 99%

Compound: OC(c1ccccc1)(c1ccccc1)C1CCNCC1 [dealkylated metabolite]
activity of metabolite (antihistaminic) (histamine H1-receptor): inactive

Compound: CC(C)(C(=O)O)c1ccc(C(O)CCCN2CCC(C(O)(c3ccccc3)c3ccccc3)CC2)cc1 (stereo not drawn) [terfenadine acid metabolite, 4-[l-hydroxy-4-[4-(hydroxydiphenylmethyl)-1-piperidinyl]butyl]-α,α-dimethyl-benzeneacetic acid]
cardiac events of QT prolongation and/or ventricular tachycardia [3]: will not experience cardiac events of QT prolongation and/or ventricular tachycardia
